Test results as given in PubChem BioAssay AID1159565 (GlaxoSmithKline (GSK), 2015).
pIC50: −log10 of the molar value. Activity calls are given as the source filed them. The rule behind the calls is not given here.

Tested on: T. cruzi-infected H9C2 cardiomyocytes, high-content imaging
Experiment: intracellular T. cruzi amastigote inhibition, imaging, H9C2 host cardiomyocytes, host toxicity (AID 1159565);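 note: infected cells incubated 72 h after plating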
[1] = measured here: H9C2 host cell toxicity
[2] = measured here: amastigotes per cell

Structure (SMILES)	pIC50	pIC50 [1]	pIC50 [2]	IC50
CC(C)c1cc(Nc2cc(Cc3ccccc3)nc(NC3CCC(O)CC3)n2)n[nH]1 (stereo not drawn)	7.10	8.20	7.49	–
COc1ccc(-c2nc3ncccc3o2)cc1NC(=O)c1cccs1	5.60	< 4.30	5.70	–
O=c1[nH]c(C=Cc2cccc(OCCOc3ccccc3)c2)nc(O)c1[N+](=O)[O-]	6.70	< 4.30	6.80	–
Cc1[nH]n2c(=O)c3c(nc2c1-c1ccc(Cl)cc1)CCCC3	6.00	< 4.30	6.60	–
O=C1CN(C(=O)c2cccc(Nc3ncc(-c4ccc5c(c4)OCO5)cn3)c2)CCN1	6.10	4.20	6.30	–
COc1cccc(C(=O)[C@H]2C[C@@H]2CN(Cc2ccccn2)Cc2ccccn2)c1	5.89	4.70	6.10	–
O=C(CSc1nnc(-c2ccc3c(c2)OCO3)o1)N(Cc1ccco1)CC(F)(F)F	5.49	< 4.30	5.60	–
COc1cccc2sc(CN(C)C(=O)C3CNCCN3c3ccc(F)cc3)c(C)c12 (stereo not drawn)	6.70	5.10	6.80	–
OC1CCC(Nc2nccc(-c3sc(C4CCOCC4)nc3-c3ccc(F)c(F)c3)n2)CC1 (stereo not drawn)	6.49	4.49	6.70	–
CCN(CC)c1nc(Nc2ccncc2)nc2ccccc12	7.10	5.10	8.30	–
CN1CCCN(C(=O)c2ccc(N3CCCC3)cc2Cl)CC1	6.00	< 4.30	6.20	–
O=C(Nc1ncc([N+](=O)[O-])s1)C1CC1	6.00	< 4.30	6.40	–
Cc1ccc(NC(C)C(=O)Nc2ccc(C#N)cc2)cc1S(=O)(=O)N1CCCCC1 (stereo not drawn)	5.10	< 4.30	5.10	–
CN(C(=O)Nc1ccc2c(c1)CCN(C1CCC1)CC2)c1ccc(C#N)cc1	5.40	< 4.30	5.70	–
Cc1ccc(-c2csc(NC(=O)C=Cc3ccc(S(=O)(=O)N4CCOCC4)cc3)n2)o1	5.00	4.49	5.00	–
COc1cccc(S(=O)(=O)Nc2ccc3c(c2)CC(N2CCC(NC(=O)C4CC4)CC2)C3)c1 (stereo not drawn)	–	< 4.30	4.49	> 50 µM (inactive)
CNC(=O)C1Cc2ccccc2N1C(=O)Cc1ccc(F)cc1 (stereo not drawn)	–	< 4.30	< 4.30	> 50 µM (inactive)
CCC1Oc2cc(S(=O)(=O)N(C)CC(=O)N3CCc4ccccc4C3)c(C)cc2NC1=O (stereo not drawn)	6.60	< 4.30	6.60	–
Cc1cc(Nc2cc(C3CC3)[nH]n2)nc(N2CCCC2)n1	7.00	6.60	7.10	–
CCOc1cc(NCCCN2CCN(C)CC2)c2ncccc2c1	5.89	4.49	6.00	–
Cc1cc(C)cc(NS(=O)(=O)c2cc(-c3cc(C)[nH]n3)ccc2C)c1	5.80	4.49	5.89	–
Cc1cc(C)n(-c2nc(NC(C)(C)C)nc(N3CCOCC3)n2)n1	5.00	5.89	5.49	–
CS(=O)(=O)c1ccccc1C(=O)N(Cc1ccccc1)c1ccccc1	–	< 4.30	4.40	> 50 µM (inactive)
O=C(Nc1cccc(Cl)c1)N1CCCCC1c1cccnc1 (stereo not drawn)	6.70	< 4.30	6.70	–

Structure (SMILES)	pIC50	pIC50 [1]	pIC50 [2]	IC50
O=C1COC(c2ccccc2)(c2ccccc2)CN1C1CCN(Cc2ccc(-n3ccnc3)cc2)CC1	5.70	4.49	6.30	–
CNc1cc(Cn2c(C(=O)c3cc(C)cc(Cl)c3)c(C(C)C)c(=O)[nH]c2=O)ccn1	7.70	< 4.30	7.70	–
CC(=O)Nc1ccc(CN2CCC(N3CC(c4ccccc4)(c4ccccc4)OCC3=O)CC2)cc1	4.49	< 4.30	4.70	–
Clc1ccc(CN2CCN(C3=NCCN3)CC2)cc1Cl	5.00	< 4.30	6.00	–
N#Cc1ccc(S(=O)(=O)N2CCN(Cc3cccc(-c4ccncc4)c3)CC2)cc1	6.60	4.60	6.70	–
Cc1cccc(N2CCCN(Cc3c[nH]c4ccccc34)CC2)n1	6.40	5.60	6.49	–
Cc1[nH]nc(Nc2ccnc3[nH]ccc23)c1C	–	< 4.30	< 4.30	> 50 µM (inactive)
Nc1nccc(-c2csc(Nc3ccc(Cl)cc3)n2)n1	–	5.70	< 4.30	> 50 µM (inactive)
CCOc1ccc(CC(=O)N2c3ccccc3CC2C(=O)NC)cc1 (stereo not drawn)	–	< 4.30	< 4.30	> 50 µM (inactive)
O=C(Nc1ccc(Br)cn1)c1ccc(Cn2cnc([N+](=O)[O-])n2)cc1	6.89	< 4.30	7.10	–
Cc1cc(NC(=O)C2CCCCC2)n(-c2nc3c(c(=O)[nH]2)CCC3)n1	6.30	5.70	6.80	–
Fc1ccccc1N1C[C@H]2CCN(c3cccnc3)C[C@H]2C1	6.70	< 4.30	6.70	–
CCn1c(NC(=O)Cc2ccc(F)cc2)nc2ccccc21	5.10	< 4.30	5.40	–
CC(c1cc(Cl)cc(Cl)c1)N(C)c1ncc2c(N)nc(N)nc2n1 (stereo not drawn)	8.70	5.10	9.00	–
c1ccc(Nc2nc(-c3ccccn3)cc(N3CCOCC3)n2)cc1	–	6.20	4.60	> 50 µM (inactive)
N#Cc1ccccc1S(=O)(=O)N1CCN(C(=O)CNC(=O)c2ccc3c(c2)OCO3)CC1	6.00	< 4.30	6.20	–
O=C1OCc2ccc(Nc3nccc(-c4cnn5ncccc45)n3)cc21	7.20	7.60	7.49	–
Cc1nccn1C1CCCN(C(=O)c2cc3c(F)cccc3s2)C1 (stereo not drawn)	6.00	< 4.30	6.10	–
COc1cc(C(C)C)c(S(C)(=O)=O)cc1C(=O)N1CCN(c2ccccc2Cl)CC1	5.60	4.70	5.70	–
O=C1NCCn2ccc(Nc3nc(NC4CCC(O)CC4)ncc3Cl)c21 (stereo not drawn)	4.70	6.40	5.49	–
CC(C)S(=O)(=O)c1ccc(-c2cnc(N)c3cc(-c4ccnc(N)n4)ccc23)cc1	4.40	6.30	4.89	–
O=C(CN(Cc1ccccn1)Cc1ccccn1)NCc1ccc(-c2csnn2)cc1	4.20	< 4.10	5.10	–
O=C(c1cnn(-c2ccccc2)n1)N1CCCC(n2ccnc2)C1 (stereo not drawn)	7.10	< 4.30	7.20	–
CCCC(=O)N(Cc1ccccn1)c1nc2ccccc2s1	7.00	< 4.30	7.10	–

Structure (SMILES)	pIC50	pIC50 [1]	pIC50 [2]	IC50
N#Cc1cccc(CN2CCC(c3nc(-c4ccc(C(F)(F)F)nc4)no3)CC2)c1	5.70	< 4.30	5.60	–
O=C(Nc1ccc(Br)c(Cl)c1)Nc1ccc2c(c1)OCO2	5.30	< 4.30	5.70	–
COc1ccc(C2CC(c3ccccc3Cl)=NN2C(=O)CNC(=O)C2CCC2)cc1 (stereo not drawn)	5.80	< 4.30	6.00	–
CCN(CC)c1nc(N(C)C)nc2c1CN(Cc1ccccc1)CC2	4.70	< 4.30	5.40	–
Cc1ccc(Nc2nc(-c3ccccn3)cc(N3CCCC(O)C3)n2)cc1 (stereo not drawn)	5.20	6.30	5.60	–
Cc1nn(-c2nc3ccccc3s2)c2c1C(c1ccc(OCC(N)=O)cc1)SCC(=O)N2 (stereo not drawn)	–	< 4.30	< 4.30	> 50 µM (inactive)
COc1cc2c(cc1OC)[C@H]1[C@@H](C)c3ccc(OC)c(OC)c3CN1CC2	–	< 4.30	4.70	> 50 µM (inactive)
COc1ccc(S(=O)(=O)Nc2ccc(C(=O)Nc3nc(-c4ccccn4)cs3)cc2)cc1	6.10	5.20	6.20	–
O=C(NCC1CCCCC1)c1cc(=O)c2ccccc2o1	6.20	4.49	6.30	–
Cc1ccccc1OCC(=O)N1CCCN(c2cccnn2)CC1	6.20	< 4.30	6.30	–
Cn1nccc1-c1cc(OC(CN)c2ccccc2)cnc1-c1ccco1 (stereo not drawn)	7.00	< 4.30	7.00	–
NC(=O)c1ncccc1Nc1nc(NC2CCC(O)CC2)ncc1Br (stereo not drawn)	5.70	6.20	6.30	–
CC1CCCCN1C(=O)NCCc1coc(-c2ccc(F)cc2)n1 (stereo not drawn)	6.49	< 4.30	6.49	–
Cc1sc(C)c(C(F)(F)F)c1CNCCCNc1cc(=O)c2ccccc2[nH]1	6.00	< 4.30	6.30	–
O=C(NCC(c1cccs1)N1CCOCC1)c1ccc([N+](=O)[O-])o1 (stereo not drawn)	4.80	5.30	4.80	–
COc1cc(C2SCC(=O)Nc3c2c(C)nn3-c2nc3ccccc3s2)cc(OC)c1O (stereo not drawn)	–	< 4.30	< 4.30	> 50 µM (inactive)
Cc1ccnc(NS(=O)(=O)c2ccc(NC(=O)c3ccc([N+](=O)[O-])s3)cc2)n1	5.00	5.30	5.20	–
C=CCn1nc([N+](=O)[O-])nc1Oc1ccc(Cl)cc1Cl	6.60	< 4.30	6.89	–
Nc1nonc1-c1nc2cncc(C(=O)N3CC[C@H](N)C3)c2n1CC1CC1	–	< 4.30	4.89	> 50 µM (inactive)
COc1ccc(C2CC(c3ccccc3Cl)=NN2C(=O)CNC(=O)C2CCCC2)cc1 (stereo not drawn)	5.49	< 4.30	5.70	–
O=C(Nc1ccc(C(F)(F)F)cc1)Nc1cccc([N+](=O)[O-])c1	5.89	5.30	6.10	–
O=c1[nH]cnc2c([C@@H]3O[C@H](CO)[C@@H](O)[C@H]3O)[nH]nc12	6.30	< 4.30	6.49	–
Cc1nn(-c2nc(N)nc(-c3ccccn3)n2)c(C)c1Cc1ccccc1	5.49	4.70	5.70	–
